Results reported in patent US20260108612A1, “BETA-PEPTIDES AND BETA-PEPTIDE HYDROGELS” (MONASH UNIVERSITY, priority 2022, published 2026).
“Also recorded” adds a separate entry of the source.

How the values were obtained:
Assay type in all cases: physicochemical
[1] = Atomic force microscopy of peptide self-assembly; details: ultrapure water, 0.25 mg/mL
Protocol: To confirm the self-assembly of β-tetrapeptides 1 and 2 into fibres, atomic force microscopy (AFM) was performed on a Nanoscope IV AFM with a Multimode head using a vertical engage ‘E’ scanner. A 2 μL peptide solution in MilliQ (ultrapure) water (0.25 mg/mL) was prepared and placed on a clean mica surface. A low concentration of peptide was necessary to avoid contamination the probe. The peptide solution was air-dried for 30 minutes, followed by further drying with a stream of N2 gas. Images were obtained under tapping mode with NSC-15 ‘B’ silicon cantilevers (Micromasch, Tallinn, Estonia) with a nominal force constant of 40 and 20 N/m for 1 and 2, respectively. Topographic, phase and amplitude images at a resolution of 512×512 were simultaneously obtained using scan frequency of 1 Hz with typical scan sizes of 5 μm×5 μm and 2 μm×2 μm. Images were processed with a sequence of plane fitting and offset flattening using Gwyddion 2.29 (www.gwyddion.net) software.

[2] = Inversion test for hydrogel formation (gelation); details: for Gelation result: 37° C., 24 hours
Protocol: An inversion test was used to qualitatively assess different solvent conditions and concentrations of 1 and 2 for forming a non-flowing, self-supporting stable hydrogel (Liebman, T., et al., 2007). Peptide solubility was tested using a variety of solvents and solvent mixtures: MilliQ (ultrapure) water, phosphate buffered saline (PBS) 1× (Sigma P3813), PBS 10× (Sigma P3813) and Dulbecco's Modified Eagle's Medium/Nutrient Mixture F-12 Ham (DMEM/F12) (Sigma D8437). 100 μL or 50 μL of solvent was added to 0.5 mg of peptide in a glass vial to achieve a final concentration of 5 or 10 mg/mL, respectively. The solution was vortexed up to 30 mins until all the peptide particles had dissolved and left to self-assemble and gelate for 30 minutes at room temperature.

[3] = Rheological characterisation (parallel plate rheometer); details: strain sweep 1% to 100% over 20 minutes, 1 Hz, 37° C.
Protocol: Rheological measurements were undertaken using an Anton Paar Physical parallel plate rheometer at 37° C. Hydrogels were prepared in 75% MilliQ Water/25% DMEM/F12 using 10 mg/mL of the following: 100% 1, 50% 1/50% 2, and 100% 2. The hydrogel solutions were made just prior to experiment and vortexed thoroughly, and then immediately pipetted onto the base. A top plate with diameter 8 mm was lowered to form a measurement gap size of 0.1 mm. In an oscillatory time sweep test, the storage (elastic, G′) and loss (viscous, G″) moduli were measured with strain applied at 1% at a constant frequency of 1 Hz. For the cyclic step-strain test, after 20 minutes, the strain was increased to 100% for 1 minute to mechanically shear the hydrogel before it is returned to 1% strain. This was repeated an additional 2 times. The plateau modulus was calculated as the average of the storage modulus at the end of each 20-minute gelation cycle. A strain sweep was conducted from 1% to 100% strain over the 20 minutes with a constant frequency of 1 Hz. The gel-to-sol transition point was determined at the strain at which the storage and loss modulus equalled in value. A dynamic frequency sweep was performed from 0.01 to 10 Hz with a constant strain of 1%. All measurements were obtained in triplicate and all figures are presented as the average of those triplicates.

[4] = 50% MilliQ Water/50% DMEM/F12, 5 mg/mL
[5] = 50% MilliQ Water/50% DMEM/F12, 10 mg/mL
[6] = 75% MilliQ Water/25% DMEM/F12, 5 mg/mL
[7] = 75% MilliQ Water/25% DMEM/F12, 10 mg/mL

spontaneous self-assembly into fibres (AFM) [1]	time within which the hydrogel reverts back to a solution ([2]; 1:1 MilliQ Water and DMEM/F12, both 5 and 10 mg/mL) [h]	duration of stable hydrogel under physiological conditions ([2]; 3:1 MilliQ Water:DMEM/F12, 10 mg/mL)	Gelation result [2, 5]	Gelation result [2, 6]	Gelation result ([2]; DMEM/F12, 10 mg/mL)	peptide dissolution ([2]; MilliQ water, both 5 and 10 mg/mL)	peptide dissolution ([2]; 5 mg/mL, MilliQ water, PBS 1×, PBS 10×, DMEM and 50% MQ Water/50% DMEM/F12)	Strain for gel-to-sol Transition [3] [%]	SMILES	entanglement of the fibres (AFM) [1]	Gelation result [2, 4]	Gelation result [2, 7]	Gelation result ([2]; DMEM/F12, 5 mg/mL)	Gelation result ([2]; MilliQ water, 5 mg/mL)	Gelation result ([2]; MilliQ water, 10 mg/mL)	Gelation result ([2]; PBS 1×, 5 mg/mL)	Gelation result ([2]; PBS 1×, 10 mg/mL)	Gelation result ([2]; PBS 10×, 5 mg/mL)	Gelation result ([2]; PBS 10×, 10 mg/mL)
distinct nanofibres	≤ 24	over several weeks	Unstable gel	Unstable gel	Poor dissolution	readily dissolved			CCCCCCCCCCCCCC(=O)NCC(CC(=O)NC(C)CC(=O)NC(CCCCN)CC(=O)NC1COC(=O)C1)NC(C)=O (stereo not drawn) [compound 1, Ac-Az(Myr)AKS*-Lac]	propensity for the nanofibres to aggregate together and form bundles	Unstable gel	long-lasting stable hydrogel; also recorded: Stable gel	Liquid (liquid (has the same flow as water))	Liquid (liquid (has the same flow as water))	more viscous solution; also recorded: Viscous liquid	Viscous liquid	prevented the peptide from being completely dissolved; also recorded: Poor dissolution	Viscous liquid	prevented the peptide from being completely dissolved; also recorded: Poor dissolution
distinct nanofibres			Unstable gel	Unstable gel	Unstable gel		readily dissolved	31	CCCCCCCCCCCCCC(=O)NCC(CC(=O)NC(C)CC(=O)NC(CC(=O)NC1COC(=O)C1)C(=O)NCCNC(=O)C(CC(=O)O)NC(=O)CNC(=O)C(CCCNC(=N)N)NC(C)=O)NC(C)=O (stereo not drawn) [compound 2, Ac-Az(Myr)AX(RGD)S*-Lac]	more wide-spread and mesh-like	liquid solution; also recorded: Liquid (liquid (has the same flow as water))	Stable gel	liquid solution; also recorded: Liquid (liquid (has the same flow as water))	liquid solution; also recorded: Liquid (liquid (has the same flow as water))	Liquid (liquid (has the same flow as water))	liquid solution; also recorded: Liquid (liquid (has the same flow as water))	Viscous liquid	liquid solution; also recorded: Liquid (liquid (has the same flow as water))	Poor dissolution
